Molecules are shown by their SMILES.

Drawing on patent US6004957A, “Sulfonamide inhibitors of aspartyl protease” (Vertex Pharmaceuticals, Incorporated, priority 1998, dated 1999), this text covers IC90 for 12 molecules.

The assay concerns HIVIIIb in CCRM-CEM cells. Put plainly: Anti-viral potency in CCRM-CEM cells acutely infected with HIVIIIb (method of Meek et al.), extracellular p24 antigen. The class given is cell-based, HIV-1. Conditions: Human immunodeficiency virus 1, HIV replication, Table VIII, read-out: IC90 Range. The source says:
As discussed above, the novel compounds of the present invention are excellent ligands for aspartyl proteases, particularly HIV-1 and HIV-2 proteases. Accordingly, these compounds are capable of targeting and inhibiting late stage events in HIV replication, i.e., the processing of the viral polyproteins by HIV encoded proteases. […] Because aspartyl protease is essential for the production of mature virions, inhibition of that processing effectively blocks the spread of virus by inhibiting the production of infectious virions, particularly from chronically infected cells. […] Other anti-viral assays have confirmed the potency of these compounds.
Compounds of formula I were tested for their antiviral potency in several virological assays. In the first assay, the compounds were added as a solution in dimethylsulfoxide (DMSO) to a test cell culture of CCRM-CEM cells, a strain of CD4^+ human T-cell lymphoma cells, previously acutely infected with HIVIIIb using standard protocols (see Meek, T. D. et al., "Inhibition of HIV-1 protease in infected T-lymphocytes by synthetic peptide analogues", Nature, 343, p. 90 (1990). Preferred compounds are those which are able to inhibit 90% of viral infectivity at a concentration of 1 μM or less. More preferred compounds are those which are able to inhibit 90% of viral infectivity at a concentration of 100 nM or less.
The effect of the compounds on inhibiting the replication of the virus was measured by determining the HIV extracellular p24 antigen concentration using a commercial enzyme immunoassay (obtained from Coulter Corporation, Hialeah, Fla.).
One may read the IC90 as the point of the concentration-response curve where the effect stands at 90%. Turning to `NC(=O)C[C@H](NC(=O)c1ccc2ccccc2n1)C(=O)N[C@@H](Cc1ccccc1)[C@H](O)CN(Cc1ccccc1)S(=O)(=O)c1ccccc1` [Compound 1], the 90% effect concentration (IC90) lay within 1 to 10 µM.

Consider `Cc1noc(C)c1S(=O)(=O)N(Cc1ccccc1)C[C@@H](O)[C@H](Cc1ccccc1)NC(=O)[C@H](CC(N)=O)NC(=O)c1ccc2ccccc2n1` [Compound 3], for which the IC90 was in the range of 1 to 10 µM.

In the case of `NC(=O)C[C@H](NC(=O)c1ccc2ccccc2n1)C(=O)N[C@@H](Cc1ccccc1)[C@H](O)CN(Cc1ccccc1)S(=O)(=O)c1cccc(C(F)(F)F)c1` [Compound 4], the IC90 was 1 to 10 µM.

Regarding `CC(=O)Nc1nc(C)c(S(=O)(=O)N(Cc2ccccc2)C[C@@H](O)[C@H](Cc2ccccc2)NC(=O)[C@H](CC(N)=O)NC(=O)c2ccc3ccccc3n2)s1` [Compound 5], the concentration for an effect of 90% (IC90) was 0.101 to 1 µM.

In the case of `NC(=O)C[C@H](NC(=O)c1ccc2ccccc2n1)C(=O)N[C@@H](Cc1ccccc1)[C@H](O)CN(Cc1ccccc1)S(=O)(=O)c1ccc(-c2ccon2)s1` [Compound 6, (S)-N-1-(1-Benzyl-3-(benzyl-(5-isoxazol-3-yl-thiophene-2-sulfonyl)-amino)-(1S,2 syn)-1-benzyl-2-hydroxy-propyl)-2-((quinoline-2-carbonyl)-amino)-succinamide], the IC90 lay in the range of 0.101 to 1 µM.

Take `NC(=O)C[C@H](NC(=O)c1ccc2ccccc2n1)C(=O)N[C@@H](Cc1ccccc1)[C@H](O)CN(Cc1ccccc1)S(=O)(=O)c1cccc(C(=O)O)c1` [Compound 7]: the IC90 lay in the range of 10 to 40 µM.

Take `NC(=O)C[C@H](NC(=O)c1ccc2ccccc2n1)C(=O)N[C@@H](Cc1ccccc1)[C@H](O)CN(Cc1ccccc1)S(=O)(=O)c1cccc2nonc12` [Compound 9, (S)-N-1-(3-((Benzo(1,2,5)oxadiazole-4-sulfonyl)-benzyl-amino)-(1S,2 syn)-1-benzyl-2-hydroxy-propyl)-2-((quinoline-2-carbonyl)-amino)-succinamide]: the concentration for an effect of 90% (IC90) is 0.101 to 1 µM.

Turning to `NC(=O)C[C@H](NC(=O)c1ccc2ccccc2n1)C(=O)N[C@@H](Cc1ccccc1)[C@H](O)CN(Cc1ccccc1)S(=O)(=O)c1cccc(S(N)(=O)=O)c1` [Compound 10, N-1-(1-(S)-Benzyl-3-(benzyl-(3-sulfamoyl-benzenesulfonyl)-amino)-2-(syn)-hydroxy-propyl)-2-((quinoline-2-carbonyl)-amino)-succinamide], the IC90 fell in the range of 0.101 to 1 µM.

For `CC(C)CN(C[C@@H](O)[C@H](Cc1ccccc1)NC(=O)[C@H](CC(N)=O)NC(=O)c1ccc2ccccc2n1)S(=O)(=O)c1cc(S(=O)(=O)c2ccccc2)cs1` [Compound 13, (S)-N-1-(3-((4-Benzenesulfonyl-thiophene-2-sulfonyl)-isobutyl-amino)-(1S,2 syn)-1-benzyl-2-hydroxy-propyl)-2-((quinoline-2-carbonyl)-amino)-succinamide], the concentration for an effect of 90% (IC90) is less than 0.1 µM.

Regarding `CC(C)CN(C[C@@H](O)[C@H](Cc1ccccc1)NC(=O)[C@H](CC(N)=O)NC(=O)c1ccc2ccccc2n1)S(=O)(=O)c1ccc(F)cc1` [Compound 14, (S)-N-1-(1-(S)-Benzyl-3-((4-fluoro-benzenesulfonyl)-isobutyl-amino)-2-(syn)-hydroxy-propyl)-2-((quinoline-2-carbonyl)-amino)-succinamide], the IC90 is less than 0.1 µM.

With `CC(=O)Nc1ccc(S(=O)(=O)N(CC(C)C)C[C@@H](O)[C@H](Cc2ccccc2)NC(=O)[C@H](CC(N)=O)NC(=O)c2ccc3ccccc3n2)cc1F` [Compound 15, (S)-N-1-(3-((4-Acetylamino-3-fluoro-benzenesulfonyl)-isobutyl-amino)-(1S,2 syn)-1-benzyl-2-hydroxy-propyl)-2-((quinoline-2-carbonyl)-amino)-succinamide], the IC90 was less than 0.1 µM.

`CC(=O)Nc1cc(S(=O)(=O)N(CC(C)C)C[C@@H](O)[C@H](Cc2ccccc2)NC(=O)[C@H](CC(N)=O)NC(=O)c2ccc3ccccc3n2)ccc1F` [Compound 16, (S)-N-1-(3-((3-Acetylamino-4-fluoro-benzenesulfonyl)-isobutyl-amino)-(1S,2 syn)-1-benzyl-2-hydroxy-propyl)-2-((quinoline-2-carbonyl)-amino)-succinamide]: the IC90 was in the range of 0.101 to 1 µM.
